Tested on: C57BL/6J inbred strain female mice
Test: Survival after 8 Gy whole body γ-irradiation, intraperitoneal dosing 4 hours before or after (Example 4)
Format: in vivo
Conditions: 10 mg/kg 4 hr before Radiation 8 Gy
Procedure: β-lapachone is prepared at 10 mg/ml in 40% hydroxypropyl-beta-cyclodextrin (HPBCD).
C57BL/6J inbred strain female mice (4-5 weeks old) are used. Animals are maintained in a climate-controlled animal facility.
Animals are injected with different concentrations of β-lapachone (20 and 40 mg/kg body weight) intraperitoneally 4 hours before or after irradiation.
Whole body irradiation of animals with 8 Gy of γ-rays is carried out in air at room temperature in a gamma chamber (Gammacell 40 Exactor), at a dose-rate of 1.05 Gy/min. This radiation dose is within the range of equivalent human exposures predicted in many scenarios of radiologic or nuclear terrorist attack.
Mice are divided into the following groups (each Group comprises four mice receiving identical treatment):
Group II: Mice are injected with β-lapachone 20 mg/kg body weight 4 hours before radiation.
Group III: Mice are injected with β-lapachone 40 mg/kg body weight 4 hours before radiation.
Group IV: Mice are injected with β-lapachone 20 mg/kg body weight 4 hours after radiation.
Group V: Mice are injected with β-lapachone 40 mg/kg body weight 4 hours after radiation.
Group VI: Mice are injected with amifostine 10 mg/kg body weight 4 hours before radiation.
Animals are irradiated with 8 Gy at 1.05 Gy/min dose-rate. After irradiation mice are returned to their cage and observed on a regular basis. Exposure to γ-rays causes lethality in animals. Importantly, treatment with β-lapachone, especially at a level of 40 mg/kg prior to irradiation, diminishes the death rate.

## NCCCNCCSP(=O)(O)O [Amifostine, reference compound]
  Median survival time: 12 days
4 animals
  No. of animals surviving at 20 days post-irradiation: 0
20 days
  Death rate (%): 100%
Listed as amifostine
  Median survival time in days: little or no effect

Source: patent US7649013B2, “Methods of protecting against radiation injury” (priority 2003, dated 2010)
